What all share (test): G' assay (10 uM PL peptide), results of TABLE 7 and TABLE 12
Format in all cases: binding

The target in assay [1] is T1, PDZ protein (GST-PDZ fusion) (Homo sapiens, UniProt Q8NI35).
T1 construct: made in house; host or cells: E. coli (DH5alpha, BL21 or JM109)
Particulars: PDZ INADL. The method in brief: (§1)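 Same steps as the G-zero format, apart from a peptide concentration of 10 uM in place of 20 uM in step 2. Amino-terminally biotinylated PL peptides bind GST-PDZ fusions, and retained peptide is quantified by 450 nm absorbance.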

Assay [2] deals with T2, PDZ protein (GST-PDZ fusion) (Homo sapiens, UniProt Q12959).
T2 construct: made in house; host or cells: E. coli (DH5alpha, BL21 or JM109)
The method in brief:
as §1

For assay [3], the target named is T3, PDZ protein (GST-PDZ fusion) (Homo sapiens, UniProt P57105).
T3 construct: made in house; host or cells: E. coli (DH5alpha, BL21 or JM109)
T3 sequence (P57105 1-145): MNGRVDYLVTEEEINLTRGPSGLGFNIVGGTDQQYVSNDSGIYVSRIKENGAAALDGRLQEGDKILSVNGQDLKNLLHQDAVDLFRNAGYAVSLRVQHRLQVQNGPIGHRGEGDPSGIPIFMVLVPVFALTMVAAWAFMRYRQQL
Particulars: PDZ Outer Membrane, PDZ Domain 1. The method, boiled down: as §1

For assay [4], the target named is T4, PDZ protein (GST-PDZ fusion) (Homo sapiens, UniProt O14907).
T4 construct: made in house; host or cells: E. coli (DH5alpha, BL21 or JM109)
T4 sequence (O14907 1-124): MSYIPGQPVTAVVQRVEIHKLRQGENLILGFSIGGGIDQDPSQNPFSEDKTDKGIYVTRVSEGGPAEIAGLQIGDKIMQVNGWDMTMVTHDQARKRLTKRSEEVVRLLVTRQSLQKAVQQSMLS
Particulars: PDZ TIP1, PDZ Domain 1. The method in brief:
as §1

Assay [5] deals with T5, PDZ protein (GST-PDZ fusion) (Homo sapiens, UniProt Q86UL8).
T5 construct: made in house; host or cells: E. coli (DH5alpha, BL21 or JM109)
The method, boiled down:
as §1

[6] abbreviates: PDZ Atrophin-1 Inter. Prot., PDZ Domain 5.
Setting [7] is: PDZ atrophin-1 interacting Protein, PDZ Domain 1.

Ends that are not written are not given here. Peptide text beside a SMILES is read from it. * marks the point of attachment. Biotin = O=C1N[C@H]2[C@H](CS[C@H]2CCCCC(=O)*)N1

T5 sequence (Q86UL8 whole entry, the tested form may be a part): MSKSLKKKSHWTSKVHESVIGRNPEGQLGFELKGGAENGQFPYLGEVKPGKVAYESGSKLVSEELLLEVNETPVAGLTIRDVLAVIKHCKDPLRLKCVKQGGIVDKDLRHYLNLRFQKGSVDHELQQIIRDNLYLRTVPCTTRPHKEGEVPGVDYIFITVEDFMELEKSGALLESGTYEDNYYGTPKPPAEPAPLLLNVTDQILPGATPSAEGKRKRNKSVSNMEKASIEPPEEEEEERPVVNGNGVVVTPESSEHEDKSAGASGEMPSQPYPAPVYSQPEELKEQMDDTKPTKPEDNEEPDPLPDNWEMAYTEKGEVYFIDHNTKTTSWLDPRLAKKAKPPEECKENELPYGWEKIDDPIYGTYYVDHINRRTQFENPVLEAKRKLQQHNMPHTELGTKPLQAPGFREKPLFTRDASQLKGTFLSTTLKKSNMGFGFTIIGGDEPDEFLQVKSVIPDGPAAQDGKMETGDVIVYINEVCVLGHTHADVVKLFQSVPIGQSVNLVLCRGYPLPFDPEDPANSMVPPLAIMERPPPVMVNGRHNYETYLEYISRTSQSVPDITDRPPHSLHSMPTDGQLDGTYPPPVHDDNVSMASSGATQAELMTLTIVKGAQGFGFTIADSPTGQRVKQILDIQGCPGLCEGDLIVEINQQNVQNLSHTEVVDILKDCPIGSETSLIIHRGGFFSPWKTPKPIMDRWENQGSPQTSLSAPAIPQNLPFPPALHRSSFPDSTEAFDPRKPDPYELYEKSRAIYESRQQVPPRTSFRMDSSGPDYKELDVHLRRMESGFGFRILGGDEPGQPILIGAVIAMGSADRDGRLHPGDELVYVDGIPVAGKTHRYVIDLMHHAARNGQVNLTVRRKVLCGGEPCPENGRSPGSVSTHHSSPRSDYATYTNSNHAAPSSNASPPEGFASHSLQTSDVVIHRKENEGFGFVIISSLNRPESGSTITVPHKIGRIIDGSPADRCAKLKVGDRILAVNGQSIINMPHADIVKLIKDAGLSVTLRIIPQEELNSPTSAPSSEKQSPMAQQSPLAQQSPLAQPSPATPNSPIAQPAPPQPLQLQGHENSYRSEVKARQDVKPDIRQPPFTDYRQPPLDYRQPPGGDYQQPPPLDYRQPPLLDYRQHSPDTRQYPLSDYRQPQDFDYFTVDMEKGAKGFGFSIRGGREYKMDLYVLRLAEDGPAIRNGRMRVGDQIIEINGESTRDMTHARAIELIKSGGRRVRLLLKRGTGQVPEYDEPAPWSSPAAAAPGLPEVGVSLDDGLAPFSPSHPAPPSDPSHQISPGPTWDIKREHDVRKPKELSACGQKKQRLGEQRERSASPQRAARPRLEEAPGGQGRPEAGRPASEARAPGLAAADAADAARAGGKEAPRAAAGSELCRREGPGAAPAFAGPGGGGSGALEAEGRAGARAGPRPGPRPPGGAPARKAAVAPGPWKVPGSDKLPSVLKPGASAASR
T2 sequence (Q12959 whole entry, the tested form may be a part): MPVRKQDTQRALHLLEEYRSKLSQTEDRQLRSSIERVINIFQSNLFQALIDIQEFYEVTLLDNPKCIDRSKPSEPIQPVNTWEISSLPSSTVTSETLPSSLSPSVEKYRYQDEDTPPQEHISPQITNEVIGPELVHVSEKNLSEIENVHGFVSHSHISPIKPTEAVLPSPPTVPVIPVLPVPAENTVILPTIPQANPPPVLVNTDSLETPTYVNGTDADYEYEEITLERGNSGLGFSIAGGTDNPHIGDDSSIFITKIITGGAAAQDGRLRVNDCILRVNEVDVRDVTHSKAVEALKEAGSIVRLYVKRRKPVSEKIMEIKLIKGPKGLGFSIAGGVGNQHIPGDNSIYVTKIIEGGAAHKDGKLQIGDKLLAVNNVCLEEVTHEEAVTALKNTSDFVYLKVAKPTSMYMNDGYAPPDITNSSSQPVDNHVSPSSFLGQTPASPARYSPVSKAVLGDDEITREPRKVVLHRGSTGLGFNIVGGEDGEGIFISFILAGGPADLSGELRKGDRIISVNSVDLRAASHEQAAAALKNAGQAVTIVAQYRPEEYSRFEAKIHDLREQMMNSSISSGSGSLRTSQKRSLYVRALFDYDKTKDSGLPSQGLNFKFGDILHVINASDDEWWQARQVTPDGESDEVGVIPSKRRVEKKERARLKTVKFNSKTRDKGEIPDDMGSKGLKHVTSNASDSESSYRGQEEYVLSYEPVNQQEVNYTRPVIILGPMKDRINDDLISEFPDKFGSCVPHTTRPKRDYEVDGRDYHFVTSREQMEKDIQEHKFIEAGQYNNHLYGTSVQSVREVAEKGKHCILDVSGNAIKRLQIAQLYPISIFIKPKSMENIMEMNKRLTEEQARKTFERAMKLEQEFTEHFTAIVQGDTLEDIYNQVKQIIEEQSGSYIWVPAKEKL
T1 sequence (Q8NI35 whole entry, the tested form may be a part): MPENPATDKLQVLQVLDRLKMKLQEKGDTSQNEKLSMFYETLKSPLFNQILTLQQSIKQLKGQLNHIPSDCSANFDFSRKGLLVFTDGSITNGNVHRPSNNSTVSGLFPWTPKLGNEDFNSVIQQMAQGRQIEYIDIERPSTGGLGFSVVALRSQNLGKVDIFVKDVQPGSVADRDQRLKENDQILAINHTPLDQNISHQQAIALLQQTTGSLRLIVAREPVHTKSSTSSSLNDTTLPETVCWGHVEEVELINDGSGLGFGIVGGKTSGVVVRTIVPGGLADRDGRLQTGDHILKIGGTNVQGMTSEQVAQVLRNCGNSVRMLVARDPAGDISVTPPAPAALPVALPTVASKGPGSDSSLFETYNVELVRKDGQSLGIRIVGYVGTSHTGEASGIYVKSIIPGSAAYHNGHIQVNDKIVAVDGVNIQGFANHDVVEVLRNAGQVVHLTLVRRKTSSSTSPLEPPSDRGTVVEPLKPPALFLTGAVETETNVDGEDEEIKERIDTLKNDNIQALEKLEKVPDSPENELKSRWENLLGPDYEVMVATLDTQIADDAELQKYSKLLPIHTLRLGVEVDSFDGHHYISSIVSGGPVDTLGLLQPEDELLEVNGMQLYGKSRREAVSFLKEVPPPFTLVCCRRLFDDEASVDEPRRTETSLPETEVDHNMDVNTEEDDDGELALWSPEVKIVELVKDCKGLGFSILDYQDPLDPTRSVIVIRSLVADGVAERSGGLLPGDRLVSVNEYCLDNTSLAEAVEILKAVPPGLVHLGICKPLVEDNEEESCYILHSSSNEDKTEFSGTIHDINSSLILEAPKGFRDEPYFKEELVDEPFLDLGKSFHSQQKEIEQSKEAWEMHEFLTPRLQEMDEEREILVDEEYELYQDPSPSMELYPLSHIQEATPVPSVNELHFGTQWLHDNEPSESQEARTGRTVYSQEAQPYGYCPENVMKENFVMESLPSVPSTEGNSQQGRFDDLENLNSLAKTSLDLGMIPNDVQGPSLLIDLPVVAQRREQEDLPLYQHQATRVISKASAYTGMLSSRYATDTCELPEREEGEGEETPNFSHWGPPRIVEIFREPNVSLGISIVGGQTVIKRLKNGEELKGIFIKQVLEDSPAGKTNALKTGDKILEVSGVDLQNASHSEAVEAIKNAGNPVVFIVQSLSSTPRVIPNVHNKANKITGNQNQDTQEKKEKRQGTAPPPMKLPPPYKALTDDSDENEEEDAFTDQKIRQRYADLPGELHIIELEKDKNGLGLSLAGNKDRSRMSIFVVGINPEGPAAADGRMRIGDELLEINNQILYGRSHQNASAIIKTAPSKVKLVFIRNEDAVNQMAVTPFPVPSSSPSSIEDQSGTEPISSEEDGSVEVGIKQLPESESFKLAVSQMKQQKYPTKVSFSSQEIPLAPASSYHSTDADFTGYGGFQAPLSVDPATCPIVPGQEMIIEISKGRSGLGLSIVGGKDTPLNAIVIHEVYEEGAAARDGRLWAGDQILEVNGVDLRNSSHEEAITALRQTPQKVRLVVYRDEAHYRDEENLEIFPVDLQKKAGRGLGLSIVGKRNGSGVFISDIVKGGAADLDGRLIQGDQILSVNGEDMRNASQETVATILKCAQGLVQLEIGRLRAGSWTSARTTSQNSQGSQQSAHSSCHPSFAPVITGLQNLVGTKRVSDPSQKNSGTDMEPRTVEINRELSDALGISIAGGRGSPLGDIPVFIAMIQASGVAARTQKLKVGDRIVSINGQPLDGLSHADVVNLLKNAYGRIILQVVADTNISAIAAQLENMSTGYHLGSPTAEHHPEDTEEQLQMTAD

With “ISGTPTSTMVHGMTSSSSVV (Biotin-ISGTPTSTMVHGMTSSSSVV) [Clasp-2]”, the Classification in assay [1] (PDZ Domain 8) is on record as 1 (A450 nm 0-1); in assay [2] (PDZ DLG1, PDZ Domain 1), 1 (A450 nm 0-1); in assay [2] (PDZ DLG1, PDZ Domain 2) it was 1 (A450 nm 0-1); in assay [3] it was 1 (A450 nm 0-1).
As for CKR5_HUMAN (ERASSVYTRSTGEQEISVGL), the Classification in assay [4] is reported as 1 (A450 nm 0-1).
“GGGGGSGGGGGSGIESVKI [GLUR2 (glutamate receptor 2-modified)]”: the Classification is on record as 2 (A450 nm 1-2) in assay [2] (PDZ DLG1, PDZ Domain 1, 2) and 1 (A450 nm 0-1) in assay [2] (PDZ DLG1, PDZ Domain 2).
Regarding `CC[C@H](C)[C@H](NC(=O)[C@H](CCC(N)=O)NC(=O)[C@@H](NC(=O)[C@H](Cc1c[nH]cn1)NC(=O)[C@H](CCC(N)=O)NC(=O)[C@H](CC(=O)O)NC(=O)[C@H](CCC(=O)O)NC(=O)[C@H](CC(=O)O)NC(=O)[C@H](Cc1ccccc1)NC(=O)[C@@H]1CCCN1C(=O)[C@H](CCC(=O)O)NC(=O)[C@H](CC(N)=O)NC(=O)[C@H](CCC(=O)O)NC(=O)[C@@H]1CCCN1C(=O)[C@H](CC(=O)O)NC(=O)[C@H](CO)NC(=O)[C@H](CC(=O)O)NC(=O)CCCC[C@@H]1SC[C@@H]2NC(=O)N[C@@H]21)[C@@H](C)O)C(=O)N[C@H](C(=O)N[C@@H](CCCCN)C(=O)N[C@H](C(=O)O)C(C)C)[C@@H](C)O` [PTEN], the Classification in assay [1] (PDZ Domain 8) is given as 1 (A450 nm 0-1); in assay [5] (setting [6]), 2 (A450 nm 1-2); in assay [4] it was 2 (A450 nm 1-2).
Turning to “RNIEEVYVGGKQVVPFSSSV (Biotin-RNIEEVYVGGKQVVPFSSSV) [Nedasin (s-form)]”, the Classification in assay [1] (PDZ Domain 8) was 1 (A450 nm 0-1); in assay [2] (PDZ DLG1, PDZ Domain 1, 2), 3 (A450 nm 2-3); in assay [4], 5 (A450 nm of 4 more than 2× repeated).
For `CC[C@H](C)[C@H](NC(=O)[C@H](C)NC(=O)[C@H](CC(C)C)NC(=O)[C@H](Cc1c[nH]c2ccccc12)NC(=O)[C@H](Cc1c[nH]cn1)NC(=O)[C@H](CCC(N)=O)NC(=O)[C@H](CC(C)C)NC(=O)[C@H](CCC(N)=O)NC(=O)[C@H](Cc1ccccc1)NC(=O)[C@H](CCC(N)=O)NC(=O)[C@H](CCCNC(=N)N)NC(=O)[C@@H](NC(=O)[C@H](CC(=O)O)NC(=O)[C@H](CCCNC(=N)N)NC(=O)[C@H](CCC(N)=O)NC(=O)[C@H](C)NC(=O)[C@@H](NC(=O)[C@H](CC(C)C)NC(=O)[C@H](Cc1c[nH]cn1)NC(=O)[C@H](Cc1c[nH]cn1)NC(=O)CCCC[C@@H]1SC[C@@H]2NC(=O)N[C@@H]21)C(C)C)[C@@H](C)CC)C(=O)O` [noradrenaline transporter] (Biotin-HHLVAQRDIRQFQLQHWLAI-OH; C-terminus assumed), the Classification in assay [1] (PDZ Domain 3) was 3 (A450 nm 2-3).
With “A2AA_HUMAN (modified) (Biotin-HDFRRAFKKILARGDRKRIV; not fully specified)”, the Classification in assay [1] (PDZ Domain 3) is on record as 2 (A450 nm 1-2); in assay [1] (PDZ Domain 4) it was 1 (A450 nm 0-1); in assay [5] (setting [6]), 1 (A450 nm 0-1); in assay [5] (PDZ Atrophin-1 Inter. Prot., PDZ Domain 6), 1 (A450 nm 0-1).
Turning to “GPVPGEPAKPKTSAHHATFV (Biotin-GPVPGEPAKPKTSAHHATFV)”, the Classification is listed as 1 (A450 nm 0-1) in assay [2] (PDZ DLG1, PDZ Domain 1, 2) and 1 (A450 nm 0-1) in assay [4].
For the molecule `CC[C@H](C)[C@H](NC(=O)[C@H](Cc1c[nH]cn1)NC(=O)[C@H](C)NC(=O)[C@H](C)NC(=O)[C@H](CO)NC(=O)[C@@H]1CCCN1C(=O)[C@H](CCCNC(=N)N)NC(=O)[C@H](CC(=O)O)NC(=O)[C@H](CCCCN)NC(=O)[C@@H]1CCCN1C(=O)[C@H](CC(=O)O)NC(=O)[C@H](CCC(=O)O)NC(=O)CCCC[C@@H]1SC[C@@H]2NC(=O)N[C@@H]21)C(=O)N[C@H](C(=O)N[C@@H](CCC(=O)O)C(=O)N[C@@H](C)C(=O)N[C@@H](CC(C)C)C(=O)N[C@@H](CCC(=O)O)C(=O)N[C@H](C(=O)N[C@@H](CC(=O)O)C(=O)N[C@H](C(=O)O)C(C)C)[C@@H](C)O)C(C)C` [PDZ-binding kinase (PBK)] (Biotin-EDPKDRPSAAHIVEALETDV-OH; C-terminus assumed), the Classification was 1 (A450 nm 0-1) in assay [5] (setting [6]); 1 (A450 nm 0-1) in assay [2] (PDZ DLG1, PDZ Domain 1, 2); 1 (A450 nm 0-1) in assay [4].
As to `CC[C@H](C)[C@H](NC(=O)[C@H](CCC(=O)O)NC(=O)[C@H](CC(N)=O)NC(=O)[C@H](CCCNC(=N)N)NC(=O)[C@H](Cc1ccccc1)NC(=O)[C@H](CC(N)=O)NC(=O)[C@H](CO)NC(=O)[C@H](CC(N)=O)NC(=O)[C@H](CCC(=O)O)NC(=O)[C@H](CO)NC(=O)[C@H](CC(=O)O)NC(=O)[C@H](CO)NC(=O)[C@@H](NC(=O)[C@@H](NC(=O)[C@H](CC(=O)O)NC(=O)[C@H](CCCCN)NC(=O)CCCC[C@@H]1SC[C@@H]2NC(=O)N[C@@H]21)[C@@H](C)CC)[C@@H](C)O)C(=O)N[C@@H](CCC(N)=O)C(=O)N[C@@H](CO)C(=O)N[C@@H](CC(C)C)C(=O)N[C@H](C(=O)O)C(C)C` [CD95] (Biotin-KDITSDSENSNFRNEIQSLV-OH; C-terminus assumed), the Classification in assay [2] (PDZ DLG1, PDZ Domain 2) is 1 (A450 nm 0-1); in assay [3], 1 (A450 nm 0-1).
As to “SLKPGTVLPPPPYRHRNTVV (Biotin-SLKPGTVLPPPPYRHRNTVV) [ErbB-4 receptor]”, the Classification in assay [2] (PDZ DLG1, PDZ Domain 1, 2) is given as 1 (A450 nm 0-1).
In the case of `CC[C@H](C)[C@H](NC(=O)[C@H](CCC(=O)O)NC(=O)[C@H](CO)NC(=O)[C@H](CCC(=O)O)NC(=O)[C@H](CCCNC(=N)N)NC(=O)[C@H](CCCNC(=N)N)NC(=O)[C@H](CC(C)C)NC(=O)[C@@H]1CCCN1C(=O)[C@H](CCCNC(=N)N)NC(=O)[C@@H]1CCCN1C(=O)[C@H](CCC(=O)O)NC(=O)[C@H](CC(C)C)NC(=O)[C@@H]1CCCN1C(=O)[C@@H](NC(=O)[C@H](CO)NC(=O)[C@H](C)NC(=O)[C@H](CCC(N)=O)NC(=O)[C@H](CC(N)=O)NC(=O)[C@H](Cc1c[nH]cn1)NC(=O)[C@H](CC(C)C)NC(=O)CCCC[C@@H]1SC[C@@H]2NC(=O)N[C@@H]21)C(C)C)C(=O)O` [Kir2.1 (inwardly rect. K+ channel)] (Biotin-LHNQASVPLEPRPLRRESEI-OH; C-terminus assumed), the Classification is 1 (A450 nm 0-1) in assay [5] (setting [7]); 2 (A450 nm 1-2) in assay [2] (PDZ DLG1, PDZ Domain 1, 2); 1 (A450 nm 0-1) in assay [2] (PDZ DLG1, PDZ Domain 2); 4 (A450 nm 3-4) in assay [3].
`CC[C@H](C)[C@H](NC(=O)[C@H](CO)NC(=O)[C@@H](NC(=O)[C@H](Cc1ccccc1)NC(=O)[C@H](CO)NC(=O)CCCC[C@@H]1SC[C@@H]2NC(=O)N[C@@H]21)[C@@H](C)O)C(=O)N[C@@H](CC(C)C)C(=O)N[C@H](C(=O)N[C@@H](CS)C(=O)N[C@@H](Cc1c[nH]cn1)C(=O)N[C@@H](CCC(N)=O)C(=O)N[C@@H](CCCNC(=N)N)C(=O)N[C@@H](CCCNC(=N)N)C(=O)N[C@H](C(=O)N[C@@H](CCC(N)=O)C(=O)N[C@@H](CCCNC(=N)N)C(=O)N[C@@H](CCCCN)C(=O)N[C@@H](CCC(=O)O)C(=O)N[C@H](C(=O)N[C@H](C(=O)N[C@@H](C)C(=O)O)C(C)C)[C@@H](C)O)[C@@H](C)O)[C@@H](C)O` [GluR5-2 (rat)]: the Classification in assay [5] (setting [7]) is recorded as 1 (A450 nm 0-1); in assay [2] (PDZ DLG1, PDZ Domain 1) it was 2 (A450 nm 1-2); in assay [2] (PDZ DLG1, PDZ Domain 1, 2), 5 (A450 nm of 4 more than 2× repeated); in assay [2] (PDZ DLG1, PDZ Domain 2), 2 (A450 nm 1-2); in assay [2] (PDZ DLG1, PDZ Domain 3), 1 (A450 nm 0-1).
As for `CC[C@H](C)[C@H](NC(=O)[C@H](Cc1ccc(O)cc1)NC(=O)[C@H](CC(C)C)NC(=O)[C@H](CCC(N)=O)NC(=O)[C@H](Cc1c[nH]cn1)NC(=O)[C@H](CO)NC(=O)[C@H](C)NC(=O)[C@H](CC(C)C)NC(=O)[C@@H](NC(=O)[C@H](CC(=O)O)NC(=O)[C@H](CCSC)NC(=O)[C@H](Cc1ccccc1)NC(=O)[C@@H]1CCCN1C(=O)[C@H](CCCNC(=N)N)NC(=O)[C@@H](NC(=O)[C@H](CC(C)C)NC(=O)[C@H](CC(N)=O)NC(=O)[C@H](CC(=O)O)NC(=O)[C@@H](NC(=O)[C@H](CO)NC(=O)CCCC[C@@H]1SC[C@@H]2NC(=O)N[C@@H]21)[C@@H](C)O)C(C)C)[C@@H](C)O)C(=O)O` [presenilin-2] (Biotin-STDNLVRPFMDTLASHQLYI-OH; C-terminus assumed), the Classification in assay [1] (PDZ Domain 3) and in assay [5] (setting [6]) was 1 (A450 nm 0-1) throughout.
With “PPATPSPRLALPAHHNATRL (Biotin-PPATPSPRLALPAHHNATRL) [Na+/Pi cotransporter 2]”, the Classification in assay [1] (PDZ Domain 8) and in assay [3] was 1 (A450 nm 0-1) each time.

Source of the values: US20050282743A1, “Molecular interactions in cells” (Arbor Vita Corporation, priority 2001, published 2005).
